The target of experiment [1] is Platelet-activating factor receptor (Rattus norvegicus, UniProt P46002). In words: Inhibition of platelet activating factor(PAF) by binding to PAF receptor.
Experiment [2] deals with Rattus norvegicus. The experiment is described as follows: Inhibition of PAF induced cutaneous vascular permeability in rat by intravenous administration. It is filed as functional.

Each structure is given as a SMILES string.

Chain of Platelet-activating factor receptor (P46002 whole entry): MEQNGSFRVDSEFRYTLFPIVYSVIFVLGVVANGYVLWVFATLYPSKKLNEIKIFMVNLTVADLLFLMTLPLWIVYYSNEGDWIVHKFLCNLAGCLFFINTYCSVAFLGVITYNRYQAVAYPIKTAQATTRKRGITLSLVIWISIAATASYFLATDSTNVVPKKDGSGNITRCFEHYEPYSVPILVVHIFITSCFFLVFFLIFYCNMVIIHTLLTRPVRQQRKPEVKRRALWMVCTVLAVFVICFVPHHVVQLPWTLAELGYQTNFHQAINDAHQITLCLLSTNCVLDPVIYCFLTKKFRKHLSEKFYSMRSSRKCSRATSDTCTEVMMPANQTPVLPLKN

In the case of `CN(C)C(=O)n1cc(C(=O)c2ccn3c2C[S+]([O-])[C@@H]3c2cccnc2)c2ccc(-c3ccc(F)cc3)cc21` (stereo in doubt; trans), affinity in experiment [1] was put at a Ki of 68 nM. In addition, the ED50 (usually the midpoint of the dose-response relation) in experiment [2] was found to be 0.1 mg/kg.
As for `CN(C)C(=O)n1cc(C(=O)c2ccn3c2CS[C@@H]3c2cccnc2)c2ccc(-c3ccc(F)cc3)cc21`, the 50% effective dose (ED50) in experiment [2] (Rattus norvegicus, iv, read-out: ED50) is 0.006 mg/kg.
Regarding `CN(C)C(=O)n1cc(C(=O)c2ccn3c2C[S+]([O-])[C@@H]3c2cccnc2)c2ccc(-c3ccc(F)cc3)cc21` (stereo in doubt; cis), the inhibition constant Ki (as a rule, the equilibrium dissociation constant of an inhibitor or competing ligand from its target) in experiment [1] was 8.5 nM. Also, the ED50 in experiment [2] turned out to be 0.025 mg/kg.

The values above are taken from ChEMBL document CHEMBL1151509, “Synthesis of active metabolites of indole pyrrolothiazole paf antagonists” (Bioorg Med Chem Lett, 1995).
